“Also recorded” adds a separate entry of the source.
Tests used:
[1] = test system: DU-145 human prostate cancer cells; test: DCFH (DCF) oxidation assay of ROS, DCF/DNA fluorescence; format: cell-based; conditions: for DCF/DNA Fluor, units: DU-145, DMEM + F(5)
Experimental: It is well-accepted in the art that androgen, at physiological concentrations, induces ROS production in androgen dependent prostate cancer cells. A 2′,7′-dichlorodihydrofluorescein diacetate (DCF) oxidation assay was used to measure the ratio of oxidized DCF:DNA fluorescence which is an accepted measure of ROS levels in prostate cell lines.
The LNCaP human prostate cancer cells were grown in an androgen-depleted medium of 1% FBS and 4% charcoal stripped FBS, (F1/C4) and in the presence or absence of 1 nM synthetic androgen analog R1881 with or without 15 μM antioxidant α-tocopherol (vitamin E) pretreatment.
BE-3-3-3 is known to induce SSAT enzyme activity in various cell lines including androgen-dependent LNCaP and androgen-independent DU-145 prostate cancel cells. DU-145 cells were treated with increasing concentrations of BE-3-3-3 for 72 hours. Oxidative stress was measured using 96-well plate based 2′7′-dichlorfluorescein diacetate dye (“DCF”) oxidation assay. Each data point is an average of qty. 6 identically-treated wells repeated twice in triplicates.
DCFH oxidation assay. The 96-well cultures or freshly re-sected animal or human tissues were assayed for estimation of ROS levels in intact cells using the dye 2′,7′ -dichlorofluorescein diacetate (DCF) (Molecular Probes, Inc., Eugene, Oreg.). Re-sected tissues or cell cultures were washed with 200 μL Kreb's Ringer buffer (116 mM NaCl, 4.2 mM KCl, 2.5 mM CaCl2, 1.6 mM NaH2PO4, 1.2 mM MgSO4, 22 mM NaHCO3, and 11 mM D-glucose), pre-warmed to 37° C., incubated at 37° C. in 100 μL Kreb's Ringer buffer containing 10 μg/mL (final concentration) DCF dye for 45 minutes. Each 96-well culture plate was scanned on a CytoFluor 2350™ plate scanner (Applied Biosystems, Foster City, Calif.) using the 485 excitation/530 emission frequencies. […]
(§1) was added to each well 45 minutes and to all tissues 60 minutes before fluorescence measurements. The DNA fluorescence was determined 360 nm excitation/460 nm emission. All DCF or Hydroethidine fluorescence were normalized to DNA fluorescence for proper quantitation of oxidative stress.

[2] = test system: LNCaP human prostate cancer cells; test: as above; format: cell-based; conditions: for DCF/DNA Fluor, units: DMEM + (F1/C4)
Experimental: It is well-accepted in the art that androgen, at physiological concentrations, induces ROS production in androgen dependent prostate cancer cells. A 2′,7′-dichlorodihydrofluorescein diacetate (DCF) oxidation assay was used to measure the ratio of oxidized DCF:DNA fluorescence which is an accepted measure of ROS levels in prostate cell lines. […]
Results were determined using DCF oxidation assay methods. Each data point is an average of readings from qty. 6 wells repeated twice in triplicates.
DCFH oxidation assay. The 96-well cultures or freshly re-sected animal or human tissues were assayed for estimation of ROS levels in intact cells using the dye 2′,7′ -dichlorofluorescein diacetate (DCF) (Molecular Probes, Inc., Eugene, Oreg.). Re-sected tissues or cell cultures were washed with 200 μL Kreb's Ringer buffer (116 mM NaCl, 4.2 mM KCl, 2.5 mM CaCl2, 1.6 mM NaH2PO4, 1.2 mM MgSO4, 22 mM NaHCO3, and 11 mM D-glucose), pre-warmed to 37° C., incubated at 37° C. in 100 μL Kreb's Ringer buffer containing 10 μg/mL (final concentration) DCF dye for 45 minutes. Each 96-well culture plate was scanned on a CytoFluor 2350™ plate scanner (Applied Biosystems, Foster City, Calif.) using the 485 excitation/530 emission frequencies. Each tissue sample was scanned.
DNA Assay. Fifty μL of Kreb's Ringer Buffer (40 ug/mL) containing Hoechst 33342 dye, which contains
as §1

[3] = test system: polyamine and acetyl polyamine levels in LNCaP human prostate cells; test: HPLC quantitation of polyamine and acetyl polyamine levels; format: cell-based
Source text: Each data point is an average of 2 determinations of cell pellets collected from qty. 3 independent experiments.
It can be stated that FIGS. 5A-5E support the conclusion that R1881 treatment increases SSAT mRNA levels while enhancing SSAT enzyme activity.

[4] = test system: prostate tissue in TRAMPxFVB animals; test: Hydroethidine (HEt) dye oxidation in prostate sections in vivo; parameters: species or system mouse; conditions: 20-week-old TRAMPxFVB, 6 administrations of 25 mg/kgBW, sacrificed 2 weeks after treatment, HEt 8 mg/kgBW i.v.
Experimental: A method using hydroethidine (HEt) dye oxidation was standardized to observe oxidative stress in prostate tumors in vivo. HEt oxidizes to 2-hydroxy ethidium specifically by a ROS(41). The 2-hydroxy ethidium fluoresces at 488 nm excitation and 595 nm emission frequencies. The HEt dye may be safely injected into animals at least 1 hour before sacrifice. Twenty-week old TRAMPxFVB animals were injected with HEt (8 mg/kgBW) 1 hour before sacrifice. After sacrifice, prostate glands were collected, formalin-fixed and paraffin-embedded. Paraffin blocks were microtome-sectioned, and the tissues were deparaffinized, observed using fluorescence microscopy, and analyzed using digital image analysis.
The picture shown in FIGS. 7A-7D were taken at 20× magnification using an Olympus BH-2 fluorescence microscope using 480 nm excitation/600 nm emission filters coupled with a Sony DSC-V3 digital camera set at F2.8 and 30 sec. exposure.
Hydroethidine Assay. Hydroethidine dye was dissolved in DMSO (100 mg/ml) and diluted in isotonic saline to 1 mg/ml before injection. […] Microtome sections of the blocks were mounted on slides and were quantitated for fluorescence at 488 nm excitation/595 nm emission frequencies.

[5] = test system: TRAMP male mice (spontaneous prostate tumors); test: Overall survival of TRAMP mice; format: in vivo, mouse
[6] = test system: TRAMPxFVB male mice (spontaneous prostate tumors); test: Overall survival of TRAMPxFVB mice; format: in vivo, mouse
Source text: In the study using the TRAMPxFVB mice, qty. 8 animal were in the MDL 72,527-treated group, and qty. 8 mice were in the vehicle-treated group. Since these animals start prostate tumor development at an earlier age than do the TRAMP animals, treatment began at 8 weeks of age. Treatment included qty. […] Over 60% of the MDL 72,527-treated TRAMPxFVB mice survived at least 8 weeks after the end of the therapy, and at least 6 weeks after the death of the entire group of control vehicle-treated animals.

[7] = test system: TRAMPxFVB mice (palpable prostate tumor); test: Time to palpable tumor development in TRAMPxFVB mice; format: in vivo, mouse
Source text: Signs of palpable prostate tumor development were monitored twice every week.

Androgen Receptor = test: Western blot analysis of Androgen Receptor; format: in vivo, mouse; conditions: TRAMPxFVB mice
[8] = Tolerability and body weight in TRAMPxFVB mice; conditions: 25 mg/kgBW
[9] = test system: SSAT mRNA in LNCaP human prostate cancer cells; test: qRT-PCR quantitation of SSAT mRNA normalized to GAPDH mRNA; format: cell-based; conditions: 1 nM R1881, 96 hours
Source text: Each data point is an average of readings from qty. six identically-treated wells repeated twice in triplicates. […] It can be thus postulated that androgen-induced SSAT gene expression is a significant contributor to cellular ROS production in androgen-dependent prostate cancer cells.

[10] = test system: SSAT gene expression in LNCaP cells; test: DNA microarray analysis of gene expression (Affymetrix Genechip Arrays); format: cell-based, human; conditions: 1 nM R1881, 96 hours
Experimental: As shown schematically in FIG. 1, unusually high polyamine levels in prostate cells and high induction of SSAT may induce large increases in ROS levels. A DNA microarray analysis of gene expression in control untreated LNCaP cells and cells treated with 1 nM androgen analog R1881 for 96 hours was performed twice using Affymetrix Genechip Arrays. In both experiments, SSAT was clearly identified as being highly over-expressed in R1881 treated with LNCaP cells as compared to untreated control cells. Among the list of genes that are over-expressed (more than 10-fold over the control), SSAT was the only enzyme connected to the ROS-generating pathway.

[11] = 1 μM BE-3-3-3 + 25 μM MDL 72,527
[12] = LNCaP, 24 h pretreatment 25 μM MDL 72,527 then 1 nM R1881 96 h

CCNCCCNCCCNCCCNCC [BE-3-3-3, bisethylnorspermine]
DCF/DNA Fluor, units ([1]; 1 μM BE-3-3-3): 0.67 units
cellular ROS levels (DCF/DNA fluorescence, percent of control) ([1]; DU-145, increasing BE-3-3-3 concentration, 72 hours, non-cytotoxic dose <1 μM): increases oxidative stress; also recorded: increases cellular ROS levels
DCF/DNA Fluor, units ([2]; 1 μM BE-3-3-3): 3.19 units

C=C=CCNCCCCNCC=C=C [MDL 72,527]
DCF/DNA Fluor, units [1, 11]: 0.26 units
androgen (R1881) induced production of ROS ([2]; 25 μM MDL 72,527 pretreatment, increasing R1881 concentration 96 hours): effectively blocks androgen induced production of ROS
DCF/DNA Fluor, units [2, 11]: 1.87 units
N-acetyl-spermidine level [3, 12]: significant increase
N-acetylspermine level [3, 12]: significant increase
R1881-induced increase in putrescine level [3, 12]: almost completely blocked the induced increase
R1881-induced increase in spermidine level [3, 12]: almost completely blocked the induced increase
spermine level [3, 12]: without appreciably changing
APAO activity in cells ([3]; LNCaP, MDL 72,527 at 25 μM): efficiently and effectively blocked APAO activity
N-Ac-spermine level ([3]; LNCaP, treated with the compound (25 μM, 120 hours), without R1881): insignificantly small increase
effect on SSAT gene expression and/or enzymatic activity ([3]; androgen-treated LNCaP cells, 25 μM MDL 72,527): no material effect
HEt dye oxidation (fluorescence) in prostate section, oxidative stress in vivo [4]: less HEt fluorescence; also recorded: no dye oxidation was detected
survival benefit vs vehicle-treated mice ([5]; 25 mg/kgBW i.p. bi-weekly): Over 60%
overall survival (OS) vs vehicle ([5]; 25 mg/kgBW i.p. bi-weekly x3, from 22 weeks): significant improvement; also recorded: improvement in overall survival; also recorded: improved overall survival
survival benefit vs vehicle-treated mice ([6]; 25 mg/kgBW i.p. bi-weekly): Over 60%
treated mice surviving at least 8 weeks after the end of the therapy ([6]; 25 mg/kgBW i.p. bi-weekly x6): Over 60%
overall survival (OS) vs vehicle ([6]; 25 mg/kgBW i.p. bi-weekly x6, from 8 weeks of age): significant increase in OS; also recorded: improvement in overall survival; also recorded: increased overall survival
time to tumor development ([7]; TRAMPxFVB mice, 25 mg/kgBW every two weeks): delays time to tumor development
treated mice with no signs of palpable tumor ([7]; TRAMPxFVB, 11 weeks after treatment discontinued (29 week old animals), 25 mg/kgBW once bi-weekly): over 40%
Androgen Receptor level (Western blot) (Androgen Receptor): not due to down-regulation of the Androgen Receptor
tolerability (overt signs of toxicity, abnormal behavior, body weight loss) [8]: well-tolerated

C[C@]1(O)CC[C@H]2[C@@H]3CCC4=CC(=O)CCC4=C3C=C[C@@]21C [R1881, reference compound]
oxidative stress ([2]; 0.05 nM R1881): no increase in oxidative stress
DCF/DNA Fluor, units ([2]; 1 nM R1881): 3.34 units
increase in SSAT gene expression vs untreated control cells (qRT-PCR) [9]: 50 fold
SSAT over-expression over the control (DNA microarray) [10]: more than 10 fold
N-acetyl spermidine level ([3]; LNCaP, 1 nM R1881, 96 hours): increases
N-acetylspermine level ([3]; LNCaP, 1 nM R1881, 96 hours): increases
putrescine level ([3]; LNCaP, 1 nM R1881, 96 hours): significantly increases
spermidine level ([3]; LNCaP, 1 nM R1881, 96 hours): significantly increases
spermine level ([3]; LNCaP, 1 nM R1881, 96 hours): decreases

Cc1c(C)c2c(c(C)c1O)CC[C@@](C)(CCC[C@H](C)CCC[C@H](C)CCCC(C)C)O2 [Vitamin E, α-tocopherol]
DCF/DNA Fluor, units ([2]; 1 nM R1881 + 15 μM Vitamin E): 1.80 units
